Measured values published in patent publication US20020137929A1, “1 - (3-heterocyclylphenyl) isothiourea, -isourea, -guanidine and -amidine herbicidal agents” (Intellectual Property Department, BASF Aktiengesellschaft, priority 1998, published 2002).

What was measured:
[1] = system: IPOHE (Morningglory, Ivyleaf); assay: Postemergence herbicidal evaluation; type: in vivo, Ipomoea hederacea; details: postemergence
How it was run: (§1)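 Compound is applied as a foliar spray to seedlings about two weeks old, formulated in equal parts acetone and water with 0.5% TWEEN 20 and delivered at 40 psi to give about 0.0156–0.500 kg per hectare. Injury is rated visually 0–9 after four to five weeks.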

ABUTH (Velvetleaf) = assay: Postemergence herbicidal evaluation; type: in vivo, Abutilon theophrasti; details: postemergence
How it was run: as §1

ORYSAT (Rice, Tebonnet) = assay: Preemergence herbicidal evaluation; type: in vivo, Oryza sativa, (L.) Tebonnet; details: rated 4-5 weeks after treatment, rating scale 0-9
How it was run: (§2)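 Test compound, dissolved in aqueous acetone, was sprayed over planted soil cups at an equivalent of about 0.0156 to 0.500 kg/ha; seeds had been mixed with potting soil. Greenhouse growth followed, with visual 0-9 scoring of injury at four to five weeks.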

[2] = system: IPOHE (Morningglory, Ivyleaf); assay: Preemergence herbicidal evaluation; type: in vivo, Ipomoea hederacea; details: rated 4-5 weeks after treatment, rating scale 0-9
How it was run: as §2

MOOVA (Monochoria) = assay: Preemergence weed control under flooded paddy conditions; type: in vivo, Monochoria vaginalis; details: rated 3-4 weeks after treatment
How it was run: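 Seeds or propagules sown in silt loam kept flooded 1.5-3 cm; compounds in 50/50 acetone/water pipetted into flood water at about 0.0313 to 0.500 kg/ha. Greenhouse; visual 0-9 rating versus untreated control 3-4 weeks after treatment.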

ECHCG (Barnyardgrass) = assay: Preemergence herbicidal evaluation; type: in vivo, Echinochloa crus-galli; details: rated 4-5 weeks after treatment, rating scale 0-9
How it was run: as §2

[3] = system: TRZAWR (Wheat, Winter, cv Riband); assay: Preemergence herbicidal evaluation; type: in vivo, Triticum aestivum; details: rated 4-5 weeks after treatment, rating scale 0-9
How it was run: as §2

[4] = system: CHEAL (Lambsquarters, Common); assay: Preemergence herbicidal evaluation; type: in vivo, Chenopodium album; details: rated 4-5 weeks after treatment, rating scale 0-9
How it was run: as §2

[5] = system: TRZAWR (Wheat, Winter, cv Riband); assay: Postemergence herbicidal evaluation; type: in vivo, Triticum aestivum; details: postemergence
How it was run: as §1

SETVI (Foxtail, Green) = assay: Preemergence herbicidal evaluation; type: in vivo, Setaria viridis; details: rated 4-5 weeks after treatment, rating scale 0-9
How it was run: as §2

[6] = system: ECHORC (Watergrass (Calif.)); assay: Preemergence weed control under flooded paddy conditions; type: in vivo, Echinochloa oryzoides; details: rated 3-4 weeks after treatment
How it was run: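 Ratings on a 0-9 visual scale cover stand, vigor, malformation, size, chlorosis and overall appearance relative to a control, taken three to four weeks post-treatment. Application was into flood water over freshly sown silt loam at roughly 0.0313 to 0.500 kg/ha.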

Cn1c(C(F)(F)F)cc(=O)n(-c2cc(N=C3SCC(=O)N3Cc3cccc(Cl)c3)c(Cl)cc2F)c1=O [Compound 136, 3-{4-Chloro-5-{[3-(m-chlorobenzyl)-4-oxo-2-thiazolidinylidene]amino}-2-fluorophenyl}-1-methyl-6-(trifluoromethyl)-2,4(1H,3H)-pyrimidinedione]
Herbicidal rating IPOHE ([1]; rate 0.0156 kg/ha): 9.0
Herbicidal rating IPOHE ([1]; rate 0.0313 kg/ha): 9.0
Herbicidal rating IPOHE ([1]; rate 0.0625 kg/ha): 9.0
Herbicidal rating ABUTH (ABUTH (Velvetleaf); rate 0.0156 kg/ha): 9.0
Herbicidal rating ABUTH (ABUTH (Velvetleaf); rate 0.0313 kg/ha): 9.0
Herbicidal rating ABUTH (ABUTH (Velvetleaf); rate 0.0625 kg/ha): 9.0
Preemergence herbicidal rating ORYSAT (ORYSAT (Rice, Tebonnet); rate 0.0156 kg/ha): 0.0
Preemergence herbicidal rating ORYSAT (ORYSAT (Rice, Tebonnet); rate 0.0313 kg/ha): 0.0
Preemergence herbicidal rating ORYSAT (ORYSAT (Rice, Tebonnet); rate 0.0625 kg/ha): 0.0
Preemergence herbicidal rating ORYSAT (ORYSAT (Rice, Tebonnet); rate 0.1250 kg/ha): 1.0
Preemergence herbicidal rating ORYSAT (ORYSAT (Rice, Tebonnet); rate 0.2500 kg/ha): 1.0
Preemergence herbicidal rating IPOHE ([2]; rate 0.0156 kg/ha): 0.0
Preemergence herbicidal rating IPOHE ([2]; rate 0.0313 kg/ha): 0.0
Preemergence herbicidal rating IPOHE ([2]; rate 0.0625 kg/ha): 0.0
Preemergence herbicidal rating IPOHE ([2]; rate 0.1250 kg/ha): 0.0
Preemergence herbicidal rating IPOHE ([2]; rate 0.2500 kg/ha): 0.0
herbicidal effect rating, MOOVA (MOOVA (Monochoria); 0.0313 kg/ha): 3.0
herbicidal effect rating, MOOVA (MOOVA (Monochoria); 0.0625 kg/ha): 4.0
herbicidal effect rating, MOOVA (MOOVA (Monochoria); 0.1250 kg/ha): 9.0
herbicidal effect rating, MOOVA (MOOVA (Monochoria); 0.2500 kg/ha): 9.0
Preemergence herbicidal rating ECHCG (ECHCG (Barnyardgrass); rate 0.0156 kg/ha): 0.0
Preemergence herbicidal rating ECHCG (ECHCG (Barnyardgrass); rate 0.0313 kg/ha): 0.0
Preemergence herbicidal rating ECHCG (ECHCG (Barnyardgrass); rate 0.0625 kg/ha): 0.0
Preemergence herbicidal rating ECHCG (ECHCG (Barnyardgrass); rate 0.1250 kg/ha): 0.0
Preemergence herbicidal rating ECHCG (ECHCG (Barnyardgrass); rate 0.2500 kg/ha): 0.0
Preemergence herbicidal rating TRZAWR ([3]; rate 0.0156 kg/ha): 0.0
Preemergence herbicidal rating TRZAWR ([3]; rate 0.0313 kg/ha): 0.0
Preemergence herbicidal rating TRZAWR ([3]; rate 0.0625 kg/ha): 0.0
Preemergence herbicidal rating TRZAWR ([3]; rate 0.1250 kg/ha): 1.0
Preemergence herbicidal rating TRZAWR ([3]; rate 0.2500 kg/ha): 1.0
Preemergence herbicidal rating CHEAL ([4]; rate 0.0156 kg/ha): 2.0
Preemergence herbicidal rating CHEAL ([4]; rate 0.0313 kg/ha): 9.0
Preemergence herbicidal rating CHEAL ([4]; rate 0.0625 kg/ha): 9.0
Preemergence herbicidal rating CHEAL ([4]; rate 0.1250 kg/ha): 9.0
Preemergence herbicidal rating CHEAL ([4]; rate 0.2500 kg/ha): 9.0
Herbicidal rating TRZAWR ([5]; rate 0.0156 kg/ha): 2.5
Herbicidal rating TRZAWR ([5]; rate 0.0313 kg/ha): 3.0
Herbicidal rating TRZAWR ([5]; rate 0.0625 kg/ha): 3.0
Preemergence herbicidal rating SETVI (SETVI (Foxtail, Green); rate 0.0156 kg/ha): 0.0
Preemergence herbicidal rating SETVI (SETVI (Foxtail, Green); rate 0.0313 kg/ha): 0.0
Preemergence herbicidal rating SETVI (SETVI (Foxtail, Green); rate 0.0625 kg/ha): 2.0
Preemergence herbicidal rating SETVI (SETVI (Foxtail, Green); rate 0.1250 kg/ha): 4.0
Preemergence herbicidal rating SETVI (SETVI (Foxtail, Green); rate 0.2500 kg/ha): 7.0
herbicidal effect rating, ECHORC ([6]; 0.0313 kg/ha): 7.0
herbicidal effect rating, ECHORC ([6]; 0.0625 kg/ha): 7.0
herbicidal effect rating, ECHORC ([6]; 0.1250 kg/ha): 7.0
herbicidal effect rating, ECHORC ([6]; 0.2500 kg/ha): 9.0

CN(C)c1ccc(CN2C(=O)CSC2=Nc2cc(-n3c(=O)cc(C(F)(F)F)n(C)c3=O)c(F)cc2Cl)cc1 [Compound 138, 3-{4-Chloro-5-{{3-[p-(dimethylamino)benzyl]-4-oxo-2-thiazolidinylidene}amino}-2-fluorophenyl}-1-methyl-6-(trifluoromethyl)-2,4(1H,3H)-pyrimidinedione]
Herbicidal rating IPOHE ([1]; rate 0.0156 kg/ha): 9.0
Herbicidal rating IPOHE ([1]; rate 0.0313 kg/ha): 9.0
Herbicidal rating IPOHE ([1]; rate 0.0625 kg/ha): 9.0
Herbicidal rating ABUTH (ABUTH (Velvetleaf); rate 0.0156 kg/ha): 9.0
Herbicidal rating ABUTH (ABUTH (Velvetleaf); rate 0.0313 kg/ha): 9.0
Herbicidal rating ABUTH (ABUTH (Velvetleaf); rate 0.0625 kg/ha): 9.0
Preemergence herbicidal rating ORYSAT (ORYSAT (Rice, Tebonnet); rate 0.0156 kg/ha): 0.0
Preemergence herbicidal rating ORYSAT (ORYSAT (Rice, Tebonnet); rate 0.0313 kg/ha): 0.0
Preemergence herbicidal rating ORYSAT (ORYSAT (Rice, Tebonnet); rate 0.0625 kg/ha): 0.0
Preemergence herbicidal rating ORYSAT (ORYSAT (Rice, Tebonnet); rate 0.1250 kg/ha): 0.0
Preemergence herbicidal rating ORYSAT (ORYSAT (Rice, Tebonnet); rate 0.2500 kg/ha): 0.0
Preemergence herbicidal rating IPOHE ([2]; rate 0.0156 kg/ha): 0.0
Preemergence herbicidal rating IPOHE ([2]; rate 0.0313 kg/ha): 0.0
Preemergence herbicidal rating IPOHE ([2]; rate 0.0625 kg/ha): 0.0
Preemergence herbicidal rating IPOHE ([2]; rate 0.1250 kg/ha): 0.0
Preemergence herbicidal rating IPOHE ([2]; rate 0.2500 kg/ha): 0.0
herbicidal effect rating, MOOVA (MOOVA (Monochoria); 0.0313 kg/ha): 5.0
herbicidal effect rating, MOOVA (MOOVA (Monochoria); 0.0625 kg/ha): 6.0
herbicidal effect rating, MOOVA (MOOVA (Monochoria); 0.1250 kg/ha): 6.0
herbicidal effect rating, MOOVA (MOOVA (Monochoria); 0.2500 kg/ha): 7.0
Preemergence herbicidal rating ECHCG (ECHCG (Barnyardgrass); rate 0.0156 kg/ha): 0.0
Preemergence herbicidal rating ECHCG (ECHCG (Barnyardgrass); rate 0.0313 kg/ha): 0.0
Preemergence herbicidal rating ECHCG (ECHCG (Barnyardgrass); rate 0.0625 kg/ha): 0.0
Preemergence herbicidal rating ECHCG (ECHCG (Barnyardgrass); rate 0.1250 kg/ha): 0.0
Preemergence herbicidal rating ECHCG (ECHCG (Barnyardgrass); rate 0.2500 kg/ha): 0.0
Preemergence herbicidal rating TRZAWR ([3]; rate 0.0156 kg/ha): 0.0
Preemergence herbicidal rating TRZAWR ([3]; rate 0.0313 kg/ha): 0.0
Preemergence herbicidal rating TRZAWR ([3]; rate 0.0625 kg/ha): 0.0
Preemergence herbicidal rating TRZAWR ([3]; rate 0.1250 kg/ha): 0.0
Preemergence herbicidal rating TRZAWR ([3]; rate 0.2500 kg/ha): 0.0
Preemergence herbicidal rating CHEAL ([4]; rate 0.0156 kg/ha): 1.0
Preemergence herbicidal rating CHEAL ([4]; rate 0.0313 kg/ha): 9.0
Preemergence herbicidal rating CHEAL ([4]; rate 0.0625 kg/ha): 7.0
Preemergence herbicidal rating CHEAL ([4]; rate 0.1250 kg/ha): 9.0
Preemergence herbicidal rating CHEAL ([4]; rate 0.2500 kg/ha): 9.0
Herbicidal rating TRZAWR ([5]; rate 0.0156 kg/ha): 2.5
Herbicidal rating TRZAWR ([5]; rate 0.0313 kg/ha): 3.0
Herbicidal rating TRZAWR ([5]; rate 0.0625 kg/ha): 3.0
Preemergence herbicidal rating SETVI (SETVI (Foxtail, Green); rate 0.0156 kg/ha): 0.0
Preemergence herbicidal rating SETVI (SETVI (Foxtail, Green); rate 0.0313 kg/ha): 0.0
Preemergence herbicidal rating SETVI (SETVI (Foxtail, Green); rate 0.0625 kg/ha): 0.0
Preemergence herbicidal rating SETVI (SETVI (Foxtail, Green); rate 0.1250 kg/ha): 3.0
Preemergence herbicidal rating SETVI (SETVI (Foxtail, Green); rate 0.2500 kg/ha): 2.0
herbicidal effect rating, ECHORC ([6]; 0.0313 kg/ha): 7.0
herbicidal effect rating, ECHORC ([6]; 0.0625 kg/ha): 9.0
herbicidal effect rating, ECHORC ([6]; 0.1250 kg/ha): 9.0
herbicidal effect rating, ECHORC ([6]; 0.2500 kg/ha): 9.0
